For eight compounds, IC50 results are on record in US11034725B2, “Compositions and methods for treating cardiovascular disease” (Genentech, Inc., priority 2016, dated 2021).

Read-outs that look alike come from different tables or passages of the source. Bridge positions count the residues as written; N and C are the ends. Square brackets hold non-standard residues; d marks the D form. Peptide text beside a SMILES is read from it. * marks the point of attachment. X21 = O=C([C@@H]1C[C@@H]1c1cccnc1)*; X5 = Cn1cc([C@@H]2C[C@H]2C(=O)*)cn1; hArg = N=C(N)NCCCC[C@H](N)C(=O)O; X24 = CN1CCC(n2cc(C(=O)*)cn2)C1; X3 = O=C(CC1CCN(Cc2ccccn2)CC1)*; X13 = O=C(CCN1CCS(=O)(=O)CC1)*; X26 = O=C1CCCN1CCC(=O)*

One assay addresses T1, PCSK9Δhelix (Homo sapiens, UniProt Q8NBP7).
T1 construct: Human PCSK9 construct M1-Q692 with an engineered TEV site (residue deletion Y166, R167); made in house; host or cells: CHO
In words: PCSK9Δhelix/Ab20 TR-FRET binding assay. To be noted: TR-FRET, read-out: PCSK9Δhelix/Ab20 IC50. (In TR-FRET formats the signal depends on donor and acceptor labels being close together.)

Another assay concerns the target PCSK9 (Homo sapiens, UniProt Q8NBP7). Briefly: PCSK9/EGF(A) TR-FRET binding assay. To be noted: TR-FRET; Table 8E, additional compounds; read-out: PCSK9/EGF(A) IC50.
Where [1] appears, read: Table 8D, disulfide-cyclized extension peptides.

PCSK9, sequence (Q8NBP7 153-692): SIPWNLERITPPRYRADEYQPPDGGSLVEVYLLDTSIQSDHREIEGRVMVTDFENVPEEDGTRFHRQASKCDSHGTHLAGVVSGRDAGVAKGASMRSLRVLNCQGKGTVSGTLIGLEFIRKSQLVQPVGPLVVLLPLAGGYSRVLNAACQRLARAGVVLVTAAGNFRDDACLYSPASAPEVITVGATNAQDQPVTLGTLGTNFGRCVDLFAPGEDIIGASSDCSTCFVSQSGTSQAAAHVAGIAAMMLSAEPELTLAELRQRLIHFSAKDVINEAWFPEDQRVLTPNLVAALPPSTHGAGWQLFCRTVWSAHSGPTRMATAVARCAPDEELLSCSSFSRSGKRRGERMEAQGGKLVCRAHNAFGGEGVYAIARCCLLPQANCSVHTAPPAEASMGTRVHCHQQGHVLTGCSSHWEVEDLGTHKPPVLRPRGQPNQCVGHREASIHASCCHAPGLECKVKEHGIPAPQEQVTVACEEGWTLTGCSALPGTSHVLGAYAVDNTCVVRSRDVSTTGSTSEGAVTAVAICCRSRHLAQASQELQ
PCSK9, sequence (Q8NBP7 31-152 partner limits assumed): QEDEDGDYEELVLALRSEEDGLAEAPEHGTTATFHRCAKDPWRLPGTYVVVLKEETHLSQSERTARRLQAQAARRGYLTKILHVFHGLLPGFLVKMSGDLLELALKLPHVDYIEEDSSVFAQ
T1 sequence (Q8NBP7 with tags, fused parts or gaps limits assumed): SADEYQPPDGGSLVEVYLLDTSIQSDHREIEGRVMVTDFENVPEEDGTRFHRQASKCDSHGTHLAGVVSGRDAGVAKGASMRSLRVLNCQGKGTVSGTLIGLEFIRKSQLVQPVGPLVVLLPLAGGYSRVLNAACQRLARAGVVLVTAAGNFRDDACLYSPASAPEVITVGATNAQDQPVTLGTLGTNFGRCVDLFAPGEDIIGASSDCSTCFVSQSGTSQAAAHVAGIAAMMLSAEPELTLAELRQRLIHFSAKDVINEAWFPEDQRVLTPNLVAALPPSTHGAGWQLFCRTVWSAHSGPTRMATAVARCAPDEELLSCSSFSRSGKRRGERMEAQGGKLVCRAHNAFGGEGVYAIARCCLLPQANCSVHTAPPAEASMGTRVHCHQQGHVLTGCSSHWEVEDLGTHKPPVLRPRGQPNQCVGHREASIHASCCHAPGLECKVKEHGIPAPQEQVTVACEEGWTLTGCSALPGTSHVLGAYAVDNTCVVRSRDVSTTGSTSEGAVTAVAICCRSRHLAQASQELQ
T1 sequence (Q8NBP7 31-152 partner limits assumed): as the sequence (Q8NBP7 31-152 partner limits assumed) above
Description for PCSK9Δhelix: The former was based on a TF-FRET assay to measure the association of the EGF(A) domain of the LDLR to PCSK9 (“PCSK9/EGF(A) binding assay”) whilst the latter was based on a TR-FRET assay to measure binding of Ab20 to PCSK9Δhelix (“PCSK9Δhelix/Ab20 binding assay”).
The ability of compounds to inhibit binding to PCSK9 was evaluated with a panel of time-resolved fluorescence resonance energy transfer (TR-FRET) binding assays. […] The PCSK9Δhelix/Ab20 binding assay evaluated the ability of compounds to compete with Ab20 for binding to the N-terminal groove region in a His-tagged, PCSK9Δhelix construct. […] Signal generation in the PCSK9 binding assays was dependent upon the binding interaction to bring into close proximity the His-tag on the PCSK9 and the Fc-tag on the ligand. Anti-His-APC was bound to the His-tag, and anti-Fc-europium was bound to the Fc-tag. When these two antibodies were in close proximity and were irradiated with light at 340 nm, the europium was excited and emitted energy at 615 nm. This energy was taken up by the APC and was emitted as light at 665 nm. Compounds that competed with the ligand reduced the energy transfer and thus the emission at 665 nm. In the His-EGFA-Fc molecule in the counterscreen, the two tags were always in close proximity, thus any reduction in emission at 665 nm was due to interference with the detection system.
Compounds were solubilized and dilutions were prepared in DMSO. […] The plate was centrifuged to mix the well contents and allowed to incubate for 30 min. […] The TR-FRET signal was read on a ViewLux reader (PerkinElmer) with excitation at 340 nm and emission at 615 and 665 nm with a 50-μs time delay between excitation and measurement of emission. The TR-FRET ratio was calculated as the fluorescence emission at 665 nm divided by the fluorescence emission at 615 nm. The normalized TR-FRET ratios were plotted as a function of the compound concentrations, and the IC50 values were determined using a 4-parameter logistic regression.
In black 1536-well assay plates (MaKO, Aurora® Microplates, Whitefish, Mont.), 40 nL of peptide in DMSO were preincubated with 2 μL His-tagged PCSK9 plus anti-His-allophycocyanin in assay buffer (50 mM Tris-HCl, pH 7.5, 150 mM NaCl, 2 mM CaCl2, 0.01% Tween®-20, 0.1% bovine gamma globulins, and protease inhibitor cocktail) for 30 min. Then 2 μL of Fc-tagged ligand and anti-Fc-europium in assay buffer were added and allowed to incubate for 2 h.

On to `CC[C@H](C)[C@@H]1NC(=O)[C@H](CCCNC(=N)N)NC(=O)[C@H](CCCCN)NC(=O)[C@H](CC(C)C)NC(=O)[C@H](CC(N)=O)NC(=O)[C@H](Cc2c[nH]c3ccccc23)NC(=O)[C@H](CC(C)C)NC(=O)[C@@H](NC(=O)[C@@H](N)Cc2c[nH]c3ccccc23)CSSC[C@@H](C(=O)N[C@@H](Cc2c[nH]c3ccccc23)C(=O)N[C@@H](Cc2ccccc2)C(=O)O)NC(=O)[C@H](CCC(N)=O)NC(=O)[C@H](CO)NC(=O)CNC1=O` [Compound 66] (H-WCLWNLKRIGSQCWF-OH; disulfide 2-13), for which, on PCSK9Δhelix (setting [1]), the IC50 was determined as 12 µM. On the same count and under the same terms, under `CC[C@H](C)[C@@H]1NC(=O)[C@H](CCCNC(=N)N)NC(=O)[C@H](CCCCN)NC(=O)[C@H](CC(C)C)NC(=O)[C@H](CC(N)=O)NC(=O)[C@H](Cc2c[nH]c3ccccc23)NC(=O)[C@H](CC(C)C)NC(=O)[C@@H](NC(=O)[C@H](Cc2c[nH]c3ccccc23)NC(C)=O)CSSC[C@@H](C(=O)N[C@@H](Cc2c[nH]c3ccccc23)C(=O)N[C@@H](Cc2ccccc2)C(=O)O)NC(=O)[C@H](CCC(N)=O)NC(=O)[C@H](CO)NC(=O)CNC1=O` [Compound 90] (Ac-WCLWNLKRIGSQCWF-OH; disulfide 2-13) stands 7.38 µM. For the compound `CC[C@H](C)[C@H](NC(=O)[C@H](CCCNC(=N)N)NC(=O)[C@@H](NC(=O)[C@H](CC(C)C)NC(=O)[C@H](CC(N)=O)NC(=O)[C@H](Cc1c[nH]c2ccccc12)NC(=O)CCN1CCS(=O)(=O)CC1)C(C)C)C(=O)NCC(=O)N[C@@H](CC(C)C)C(=O)N[C@@H](CC(C)C)C(=O)N[C@@H](CCCNC(=N)N)C(N)=O` [Compound 126] (X13-WNLVRIGLLR-NH2), the IC50 at PCSK9Δhelix (Table 8E, additional compounds) is 19 µM; at PCSK9, ≥ 50 µM. Taken in the same sequence, the figures for `CC[C@H](C)[C@H](NC(=O)[C@H](CCCNC(=N)N)NC(=O)[C@@H](NC(=O)[C@H](CC(C)C)NC(=O)[C@H](CC(N)=O)NC(=O)[C@H](Cc1c[nH]c2ccccc12)NC(=O)[C@@H]1C[C@H]1c1cnn(C)c1)C(C)C)C(=O)NCC(=O)N[C@@H](CC(C)C)C(=O)N[C@@H](CC(C)C)C(=O)N[C@@H](CCCNC(=N)N)C(N)=O` [Compound 127] (X5-WNLVRIGLLR-NH2) were 29 µM and ≥ 50 µM. Taken in the same sequence, the figures for `CC[C@H](C)[C@H](NC(=O)[C@H](CCCNC(=N)N)NC(=O)[C@@H](NC(=O)[C@H](CC(C)C)NC(=O)[C@H](CC(N)=O)NC(=O)[C@H](Cc1c[nH]c2ccccc12)NC(=O)CCN1CCCC1=O)C(C)C)C(=O)NCC(=O)N[C@@H](CC(C)C)C(=O)N[C@@H](CC(C)C)C(=O)N[C@@H](CCCNC(=N)N)C(N)=O` [Compound 128] (X26-WNLVRIGLLR-NH2) were 7.5 µM and ≥ 50 µM. On to `CC[C@H](C)[C@H](NC(=O)[C@H](CCCNC(=N)N)NC(=O)[C@@H](NC(=O)[C@H](CC(C)C)NC(=O)[C@H](CC(N)=O)NC(=O)[C@H](Cc1c[nH]c2ccccc12)NC(=O)c1cnn(C2CCN(C)C2)c1)C(C)C)C(=O)NCC(=O)N[C@@H](CC(C)C)C(=O)N[C@@H](CC(C)C)C(=O)N[C@@H](CCCNC(=N)N)C(N)=O` (stereo partly shown) [Compound 129] (X24-WNLVRIGLLR-NH2), for which the IC50 at PCSK9Δhelix (Table 8E, additional compounds) was 23 µM; at PCSK9, ≥ 50 µM. Consider `CC[C@H](C)[C@H](NC(=O)[C@H](CCCNC(=N)N)NC(=O)[C@@H](NC(=O)[C@H](CC(C)C)NC(=O)[C@H](CC(N)=O)NC(=O)[C@H](Cc1c[nH]c2ccccc12)NC(=O)CC1CCN(Cc2ccccn2)CC1)C(C)C)C(=O)NCC(=O)N[C@@H](CC(C)C)C(=O)N[C@@H](CC(C)C)C(=O)N[C@@H](CCCNC(=N)N)C(N)=O` [Compound 130] (X3-WNLVRIGLLR-NH2), for which the IC50 at PCSK9Δhelix (Table 8E, additional compounds) was 8.6 µM; on PCSK9, ≥ 50 µM. Turning to `CC[C@H](C)[C@H](NC(=O)[C@H](CCCCNC(=N)N)NC(=O)[C@@H](NC(=O)[C@H](CC(C)C)NC(=O)[C@H](CC(N)=O)NC(=O)[C@H](Cc1c[nH]c2ccccc12)NC(=O)[C@@H]1C[C@@H]1c1cccnc1)C(C)C)C(=O)NCC(=O)N[C@@H](CC(C)C)C(=O)N[C@@H](CC(C)C)C(=O)N[C@@H](CCCNC(=N)N)C(N)=O` [Compound 221] (X21-WNLV[hArg]IGLLR-NH2), the IC50 on PCSK9 stood at 9.5 µM.
